Measurements as given in BigSolDB 2.1.

O=C(Nc1ccncc1)c1cc(C(=O)Nc2ccncc2)cc(C(=O)Nc2ccncc2)c1
solubility (mole fraction)
Conditions	283.15 K	288.15 K	293.15 K	298.15 K	303.15 K	313.15 K	323.15 K
in 2-butanone	0.00034	–	0.000455	–	0.000519	0.000577	0.000675
in acetone	6.66e-06	–	1.54e-05	–	1.86e-05	2.5e-05	3.64e-05
in acetonitrile	7.35e-05	–	9.53e-05	–	0.00012	0.000146	0.000183
in dichloromethane	3.08e-05	4.23e-05	5.41e-05	6e-05	6.77e-05	–	–
in ethanol	4.73e-05	–	6.07e-05	–	7.59e-05	8.97e-05	0.000104
in ethyl acetate	0.000114	–	0.000137	–	0.000153	0.000178	0.000196
in isopropanol	0.000265	–	0.000302	–	0.000355	0.000405	0.000431
in methanol	5.21e-05	–	6.76e-05	–	9.65e-05	0.00013	0.000163
in n-butanol	0.000156	–	0.0002	–	0.000235	0.000297	0.000371
in n-hexane	1.15e-05	–	2.45e-05	–	4.03e-05	5.54e-05	6.95e-05
in n-propanol	0.000217	–	0.000244	–	0.000255	0.000277	0.00029
in water	4.65e-06	–	5.71e-06	–	7.83e-06	8.34e-06	1.6e-05
